Reference: ChEMBL document CHEMBL5380782, “Design, Biological Evaluation, and Computer-Aided Analysis of Dihydrothiazepines as Selective Antichlamydial Agents” (J Med Chem, 2023)
Converted amounts (≈) assume the structure as drawn. The source made the active and inactive calls. The rule behind the calls is not given here.

Key:
Chlamydia trachomatis [1] = assay: Antibacterial activity against Chlamydia trachomatis serovar L2 infected in HEp-2 cells assessed as bacterial growth inhibition incubated for 16 hrs by IFA assay; assay type: functional, organism-based; details: serovar L2, HEp-2, 16 h
[2] = Cytotoxicity against HEp-2 cells assessed as cell viability at 256 ug/ml incubated for 20 hrs by XTT assay relative to control; assay type: toxicity, cell-based; details: human, at 256 µg/mL, read-out: Activity
HEp-2 = assay: Cytotoxicity against HEp-2 cells assessed as cell viability at 25 ug/ml incubated for 20 hrs by XTT assay relative to control; assay type: toxicity, cell-based; details: human, hep-2, 20 h, at 25 µg/mL
[3] = Cytotoxicity against HEC-1-A cells assessed as cell survival at 256 ug/ml incubated for 20 hrs by XTT assay relative to control; assay type: toxicity, cell-based; details: human, at 256 µg/mL, read-out: Survival
Chlamydia trachomatis [4] = assay: Antibacterial activity against Chlamydia trachomatis L2 infected in HEp-2 cells assessed as inhibition of infectious progeny incubated for 24 hrs by fluorescence microscopy; assay type: functional, organism-based; details: L2, HEp-2, 24 h
[5] = Cytotoxicity against HEK293 cells assessed as cell survival at 256 ug/ml incubated for 20 hrs by XTT assay relative to control; assay type: toxicity, cell-based; details: human, at 256 µg/mL, read-out: Survival
Salmonella typhimurium [6] = assay: Mutagenicity in Salmonella typhimurium TA98 assessed as number of revertants per plate at 10 ug pretreated for 90 mins measured after 66 hrs by AMES test (reference value: 25.67 +/- 5.51); assay type: functional, Salmonella enterica subsp. enterica serovar Typhimurium; details: dose 10 µg; time 67.5 hrs
Chlamydia trachomatis [7] = assay: Inhibition of recombinant Chlamydia trachomatis ClpX ATPase activity assessed as reduction in ATP consumption at 25 ug/ml incubated for 60 mins by Kinase Glo assay relative to control; details: dose 25.0 µg/ml
[8] = Cytotoxicity against HEK293 cells assessed as cell viability at 25 ug/ml incubated for 20 hrs by XTT assay relative to control; assay type: toxicity, cell-based; details: human, at 25 µg/mL, read-out: Activity
Chlamydia trachomatis [9] = assay: Antibacterial activity against Chlamydia trachomatis serovar L2 infected in HEp-2 cells assessed as bacterial growth inhibition at 25 to 0.39 ug/ml incubated for 16 hrs by IFA assay; assay type: functional, organism-based; details: dose 25-0.39 µg/ml
Salmonella typhimurium [10] = assay: Mutagenicity in Salmonella typhimurium TA98 assessed as number of revertants per plate at 2.5 ug pretreated for 90 mins measured after 66 hrs in presence of S9 fraction by AMES test (reference value: 24.33 +/- 9.50); assay type: functional, Salmonella enterica subsp. enterica serovar Typhimurium; details: dose 2.5 µg; time 67.5 hrs
Salmonella typhimurium [11] = assay: Mutagenicity in Salmonella typhimurium TA100 assessed as number of revertants per plate at 2.5 ug pretreated for 90 mins measured after 66 hrs in presence of S9 by AMES test (reference value: 201 +/- 9.90); assay type: functional, Salmonella enterica subsp. enterica serovar Typhimurium; details: dose 2.5 µg; time 67.5 hrs
Escherichia coli [12] = assay: Antimicrobial activity against Escherichia coli K12 assessed as microbial growth inhibition incubated for 24 hrs by TTC staining based assay; assay type: functional
Blautia producta = assay: Antimicrobial activity against Blautia producta DSM 2950 assessed as microbial growth inhibition incubated for 48 hrs; assay type: functional
Staphylococcus aureus = assay: Antimicrobial activity against Staphylococcus aureus USA 300 JE2 assessed as microbial growth inhibition incubated for 24 hrs by TTC staining based assay; assay type: functional
[13] = test system: Lactiplantibacillus plantarum; assay: Antimicrobial activity against Lactobacillus plantarum DSM 20174 assessed as microbial growth inhibition incubated for 24 hrs; assay type: functional
Acinetobacter baumannii = assay: Antimicrobial activity against Acinetobacter baumannii 2208 assessed as microbial growth inhibition incubated for 24 hrs by TTC staining based assay; assay type: functional
Pseudomonas aeruginosa = assay: Antimicrobial activity against Pseudomonas aeruginosa PA01 assessed as microbial growth inhibition incubated for 24 hrs by TTC staining based assay; assay type: functional
Thomasclavelia ramosa = assay: Antimicrobial activity against Clostridium ramosum DSM 1402 assessed as microbial growth inhibition incubated for 48 hrs; assay type: functional
Anaerostipes caccae = assay: Antimicrobial activity against Anaerostipes caccae […] assessed as microbial growth inhibition incubated for 48 hrs; assay type: functional
[14] = test system: Lacticaseibacillus rhamnosus; assay: Antimicrobial activity against Lactobacillus rhamnosus CGMCC 1.3724 assessed as microbial growth inhibition incubated for 24 hrs by TTC staining based assay; assay type: functional
Escherichia coli [15] = assay: Antimicrobial activity against non-pathogenic Escherichia coli ATCC MG1655 assessed as microbial growth inhibition incubated for 24 hrs by TTC staining based assay; assay type: functional
[16] = test system: Bacteroides thetaiotaomicron; assay: Antimicrobial activity against Bacteroides thetaiotaomicron DSM 2079 assessed as microbial growth inhibition incubated for 48 hrs; assay type: functional
Nakaseomyces glabratus = assay: Antimicrobial activity against Candida glabrata 2001 assessed as microbial growth inhibition by broth microdilution method; assay type: functional
Pichia kudriavzevii = assay: Antimicrobial activity against Pichia kudriavzevii 6558 assessed as microbial growth inhibition by broth microdilution method; assay type: functional
Candida tropicalis = assay: Antimicrobial activity against Candida tropicalis 750 assessed as microbial growth inhibition by broth microdilution method; assay type: functional

SMILES	IC50 (Chlamydia trachomatis [1]; read-out: IC50)	IC50 (Chlamydia trachomatis [1]; read-out: pIC50 (converted)) [µM]	other results
N#Cc1ccc(C2Nc3ccccc3NC3=C2C(=O)c2ccccc23)cc1 (stereo not given)	20.9 µg/mL		
O=C1C2=C(Nc3ccccc3SC2c2cccc(O)c2)c2ccccc21 (stereo not given)	16.5 µg/mL	45.7	
O=C1C2=C(Nc3ccccc3SC2c2cccc([N+](=O)[O-])c2)c2ccccc21 (stereo not given)	6.35 µg/mL		
COc1ccccc1C1Sc2ccc(C(F)(F)F)cc2NC2=C1C(=O)c1ccccc12 (stereo not given)	2.46 µM	2.51	viability at 20 h, 256 ug/ml [2]: 100%
COc1ccccc1C1Sc2ccccc2NC2=C1C(=O)c1ccccc12 (stereo not given)	3.32 µg/mL	8.91	Activity (HEp-2): 73%; viability at 20 h, 256 ug/ml [3]: ≥ 75%; IC50 (Chlamydia trachomatis [4]): 6.41 µg/mL (≈ 17.3 µM); viability at 20 h, 256 ug/ml [5]: ≥ 75%; viability at 20 h, 256 ug/ml [2]: 50%
Nc1ccc([N+](=O)[O-])cc1N			Activity (Salmonella typhimurium [6]): 34.5
O=C1C2=C(Nc3ccccc3SC2c2ccc(O)cc2)c2ccccc21 (stereo not given)	14.4 µg/mL	39.8	
Cc1cccc(C2Sc3ccccc3NC3=C2C(=O)c2ccccc23)c1F (stereo not given)	4.69 µg/mL	12.6	viability at 20 h, 256 ug/ml [3]: ≥ 75%; IC50 (Chlamydia trachomatis [4]): 7.13 µg/mL (≈ 19.1 µM); inhibition (Chlamydia trachomatis [7]): 20%; viability at 20 h, 256 ug/ml [5]: ≥ 75%; viability at 20 h, 256 ug/ml [2]: 50%; viability at 20 h, 25 ug/ml [8]: 78%
O=C1C2=C(Nc3ccccc3SC2c2ccc(OC(F)(F)F)cc2)c2ccccc21 (stereo not given)	7.44 µg/mL	17.4	
O=C1C2=C(Nc3ccccc3SC2c2ccc(-c3ccccc3)cc2)c2ccccc21 (stereo not given)			inhibition (Chlamydia trachomatis [9]): inactive
Cc1ccc(C2Sc3ccccc3NC3=C2C(=O)c2ccccc23)cc1 (stereo not given)	6.72 µg/mL		
O=C1C2=C(Nc3ccccc3SC2c2cccc(C(F)(F)F)c2)c2ccccc21 (stereo not given)	5.18 µg/mL		
Cc1ccccc1C1Sc2ccccc2NC2=C1C(=O)c1ccccc12 (stereo not given)	7.82 µM	7.94	
O=C1C2=C(Nc3ccccc3SC2c2ccc(Cl)cc2)c2ccccc21 (stereo not given)	6.59 µg/mL	17.4	
Nc1ccc2cc3ccccc3cc2c1 [2-AMINOANTHRACENE]			Activity (Salmonella typhimurium [10]): 137; Activity (Salmonella typhimurium [11]): 1256
O=C1C2=C(Nc3cc(C(F)(F)F)ccc3SC2c2ccc(Br)cc2)c2ccccc21 (stereo not given)	6.93 µg/mL		
COc1ccc(C2Sc3ccc(C(F)(F)F)cc3NC3=C2C(=O)c2ccccc23)cc1 (stereo not given)	12.3 µg/mL	28.2	
N#Cc1ccccc1C1Sc2ccc(C(F)(F)F)cc2NC2=C1C(=O)c1ccccc12 (stereo not given)	1.61 µM	1.62	viability at 20 h, 256 ug/ml [2]: 100%
CC[C@H]1OC(=O)[C@H](C)[C@@H](O[C@H]2C[C@@](C)(OC)[C@@H](O)[C@H](C)O2)[C@H](C)[C@@H](O[C@@H]2O[C@H](C)C[C@H](N(C)C)[C@H]2O)[C@](C)(O)C[C@@H](C)CN(C)[C@H](C)[C@@H](O)[C@]1(C)O [AZITHROMYCIN]			MIC (Escherichia coli [12]): < 1 µg/mL; IC50 (Chlamydia trachomatis [4]): 0.06 µg/mL (≈ 0.0801 µM); MIC (Blautia producta): < 0.06 µg/mL; MIC (Staphylococcus aureus): 2 µg/mL (≈ 2.67 µM); MIC [13]: 2 µg/mL (≈ 2.67 µM); MIC (Acinetobacter baumannii): < 1 µg/mL; MIC (Pseudomonas aeruginosa): 125 µg/mL (≈ 167 µM); MIC (Thomasclavelia ramosa): < 0.06 µg/mL; MIC (Anaerostipes caccae): > 125 µg/mL; MIC [14]: 1 µg/mL (≈ 1.34 µM); MIC (Escherichia coli [15]): 2 µg/mL (≈ 2.67 µM); MIC [16]: 0.5 µg/mL (≈ 0.668 µM)
O=C1C2=C(Nc3ccccc3SC2c2cccs2)c2ccccc21 (stereo not given)	7.36 µg/mL		

SMILES	IC50 (Chlamydia trachomatis [1]; read-out: IC50)	IC50 (Chlamydia trachomatis [1]; read-out: pIC50 (converted)) [µM]	other results
O=C1C2=C(Nc3ccccc3SC2c2ccccc2C(=O)O)c2ccccc21 (stereo not given)			inhibition (Chlamydia trachomatis [9]): inactive; inhibition (Chlamydia trachomatis [7]): 20%
O=C1C2=C(Nc3ccccc3SC2c2ccc([N+](=O)[O-])cc2)c2ccccc21 (stereo not given)	9.01 µg/mL		
O=C1C2=C(NCCSC2c2ccc(Br)cc2)c2ccccc21 (stereo not given)	21.3 µg/mL		
O=C1C2=C(Nc3ccccc3SC2c2cccc(Cl)c2)c2ccccc21 (stereo not given)	4.79 µg/mL	12.9	
Cc1ccc(C2SCCNC3=C2C(=O)c2ccccc23)cc1 (stereo not given)	21.4 µg/mL	69.2	
OC(Cn1cncn1)(Cn1cncn1)c1ccc(F)cc1F [FLUCONAZOLE]			MIC (Nakaseomyces glabratus): 2 µg/mL (≈ 6.53 µM); MIC (Pichia kudriavzevii): 16 µg/mL (≈ 52.2 µM); MIC (Candida tropicalis): 0.5 µg/mL (≈ 1.63 µM)
COc1cccc(C2C3=C(Nc4ccccc4S2(=O)=O)c2ccccc2C3=O)c1 (stereo not given)	10 µg/mL		
N#Cc1ccc(C2Sc3ccccc3NC3=C2C(=O)c2ccccc23)cc1 (stereo not given)	10.2 µg/mL		
N#Cc1cccc(C2Sc3ccccc3NC3=C2C(=O)c2ccccc23)c1 (stereo not given)	9 µg/mL		
O=C1C2=C(Nc3ccccc3SC2c2ccc(Cl)cc2Cl)c2ccccc21 (stereo not given)	6.37 µg/mL	15.5	
O=C1C2=C(Nc3cc(C(F)(F)F)ccc3SC2c2cccs2)c2ccccc21 (stereo not given)	6.53 µg/mL		
O=C(O)c1ccc(C2Sc3ccccc3NC3=C2C(=O)c2ccccc23)cc1 (stereo not given)			inhibition (Chlamydia trachomatis [9]): inactive
Nc1ccc(C2Sc3ccccc3NC3=C2C(=O)c2ccccc23)cc1 (stereo not given)	17.6 µg/mL	49	
Cc1ccc(C2Nc3ccccc3NC3=C2C(=O)c2ccccc23)cc1 (stereo not given)	15 µg/mL		
COc1ccc(C2SCCNC3=C2C(=O)c2ccccc23)cc1 (stereo not given)	16.1 µg/mL		
COc1ccc(C2Nc3ccccc3NC3=C2C(=O)c2ccccc23)cc1 (stereo not given)	22.6 µg/mL	53.7	
COc1ccc(C2Sc3ccccc3N=C3C2=C(O)c2ccccc23)cc1 (stereo not given)	14.7 µg/mL		
CC(=O)Oc1ccc(C2Sc3ccccc3NC3=C2C(=O)c2ccccc23)cc1 (stereo not given)	7.18 µg/mL		
O=C1C2=C(Nc3ccccc3SC2c2ccc(OCc3ccccc3)cc2)c2ccccc21 (stereo not given)	22.8 µg/mL	51.3	
N#Cc1ccc(C2SCCNC3=C2C(=O)c2ccccc23)cc1 (stereo not given)			inhibition (Chlamydia trachomatis [9]): inactive; inhibition (Chlamydia trachomatis [7]): 20%
